Values of other authors as cited in PMC9762682, “Tocotrienols: Exciting Biological and Pharmacological Properties of Tocotrienols and Naturally Occurring Compounds, Part II” (Annals of clinical case reports, 2022).
Where two headings read alike, the source gives them in different places. Marks after values point to notes of the source that are not given here.

Tests used:
[1] = test system: plasma TNF-α, IL-2, IL-4, IL-6, IL-8, IL-10; set-up: method as in earlier work; settings: 250 mg/d + AHA Step-1 diet; baseline = 100
plasma miRNAs [2] = test system: plasma miRNAs; set-up: method as in earlier work
plasma miRNAs [3] = test system: plasma miRNAs; set-up: method as in ref 14 = [14]; PMID 27493840; doi:10.4172/2155-9880.1000434; 14. Qureshi AA , Khan DA , Saleem S , Silswal N , Trias AM , Tan B , Pharmacokinetics and bioavailability of Annatto δ-tocotrienol in healthy fed subjects . J Clin Exp Cardiol . 2015; 6 : 11 . 10.417; settings: for plasma miR122a / plasma miR-1 / plasma miR-7 / plasma miR-9 / plasma miR-15b / plasma miR-17-5p / plasma miR-19a / plasma miR-19b / plasma miR-24 / plasma miR-26a / plasma miR-34a / plasma miR-106a / plasma miR-107 / plasma miR-132 / plasma miR-143 / plasma miR-145 / plasma miR-148a / plasma miR-181a / plasma miR-182 / plasma miR-192 / plasma miR-194 / plasma miR-196a / plasma miR-199a / plasma miR-204 / plasma miR-205 / plasma miR-222 / plasma miR-342: 0-h = 100
[4] = set-up: method as in ref 16 = [16]; PMID 27493840; doi:10.4172/2155-9880.1000434; 16. Qureshi AA , Khan DA , Silswal N , Saleem S , Qureshi N . Evaluation of pharmacokinetics and bioavailability of higher doses of δ-tocotrienol in healthy fed humans . J Clin Exp Cardiol . 2016; 7
TNF-α [5] = settings: LPS-induced macrophages of wild type (C57BL/6) control group
TNF-α [6] = settings: LPS-induced macrophages of PPAR-α knockout female mice
Hela cells = test system: Hela cells; set-up: method as in PMID 29606130; value at effective dose: unit not given here;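 as to IC50: anti-proliferation of cancer cells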
Liver cancer cells = test system: Liver cancer cells; set-up: method as in PMID 29606130; value at effective dose: unit not given here
Breast cancer cells = test system: Breast cancer cells; set-up: method as in PMID 29606130; value at effective dose: unit not given here;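 as to IC50: anti-proliferation of cancer cells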
Melanoma cells = test system: Melanoma cells; set-up: method as in PMID 29606130
[7] = 250 mg/d + AHA Step-1 diet, baseline = 100
[8] = δ-tocotrienol treatment, pharmacokinetic study
[9] = plasma tocol after single dose 750 mg δ-tocotrienol
[10] = plasma tocol after single dose 750 mg δ-tocotrienol, listed as δ-tocotrienol
[11] = plasma tocol after single dose 1000 mg δ-tocotrienol
[12] = plasma tocol after single dose 1000 mg δ-tocotrienol, listed as δ-tocotrienol

## CC(C)=CCC/C(C)=C/CC/C(C)=C/CC[C@]1(C)CCc2cc(O)cc(C)c2O1 [δ-Tocotrienol]
[1]
  plasma IL-2: 55.5 ± 0.71
  plasma IL-4: 49.0 ± 1.41
  plasma IL-6: 38.5 ± 2.21
  plasma IL-8: 43.5 ± 0.71
  plasma IL-10: 63.5 ± 2.12
  plasma TNF-α: 48.5 ± 0.7
Plasma miRNAs [2]; [7]
  plasma miRNA-7a: 168.0 ± 1.41
  plasma miRNA-15a: 179.0 ± 1.41
  plasma miRNA-20a: 168.00 ± 2.24
  plasma miRNA-21: 143.0 ± 2.83
  plasma miRNA-29a: 142.0 ± 2.83
  plasma miRNA-92a: 153.5 ± 2.12
  plasma miRNA-200: 146.0 ± 1.41
  plasma miRNA-206: 150 ± 2.83
Plasma miRNAs [2]; compared to baseline in hypercholesterolemic subjects
  Circulating miRNA-7a, miRNA-15a, miRNA-20a, miRNA-21, miRNA-29a, miRNA-92a, miRNA-200, miRNA-206: up-regulated
Plasma miRNAs [3]; 3-h, 125 mg δ-tocotrienol
  plasma miR122a: 166%
  plasma miR-1: 78%
  plasma miR-7: 94%
  plasma miR-9: 88%
  plasma miR-15b: 110%
  plasma miR-17-5p: 106%
  plasma miR-19a: 95%
  plasma miR-19b: 91%
  plasma miR-24: 77%
  plasma miR-26a: 80%
  plasma miR-34a: 72%
  plasma miR-106a: 74%
  plasma miR-107: 156%
  plasma miR-132: 199%
  plasma miR-143: 63%
  plasma miR-145: 54%
  plasma miR-148a: 208%
  plasma miR-181a: 48%
  plasma miR-182: 76%
  plasma miR-192: 28%
  plasma miR-194: 50%
  plasma miR-196a: 65%
  plasma miR-199a: 81%
  plasma miR-204: 45%
  plasma miR-205: 39%
  plasma miR-222: 55%
  plasma miR-342: 70%
Plasma miRNAs [3]; 6-h, 500 mg δ-tocotrienol
  plasma miR122a: 196%
  plasma miR-1: 63%
  plasma miR-7: 85%
  plasma miR-9: 44%
  plasma miR-15b: 132%
  plasma miR-17-5p: 168%
  plasma miR-19a: 36%
  plasma miR-19b: 70%
  plasma miR-24: 45%
  plasma miR-26a: 62%
  plasma miR-34a: 59%
  plasma miR-106a: 56%
  plasma miR-107: 173%
  plasma miR-132: 145%
  plasma miR-143: 36%
  plasma miR-145: 44%
  plasma miR-148a: 233%
  plasma miR-181a: 21%
  plasma miR-182: 64%
  plasma miR-192: 21%
  plasma miR-194: 21%
  plasma miR-196a: 43%
  plasma miR-199a: 65%
  plasma miR-204: 41%
  plasma miR-205: 45%
  plasma miR-222: 51%
  plasma miR-342: 52%
Plasma miRNAs [3]; [8]
  expression of miR-107, miR-122a, and miR-132: up-regulated
  gene expression of miR-34a: down-regulated
[4]; 0 Hr., single dose 750 mg δ-tocotrienol
  plasma tocol level: 132 ± 12 ng/mL
[4]; 0 Hr., single dose 1000 mg δ-tocotrienol
  plasma tocol level: 360 ± 20 ng/mL
[4]; 750 mg/d
  Time of clearance (Cl-T): 0.086 h⁻¹
[4]; 1000 mg/d
  Time of clearance (Cl-T): 0.078 h⁻¹
[4]; 1 hr., single dose 750 mg δ-tocotrienol
  plasma tocol level: 310 ± 28 ng/mL
[4]; 1 hr., single dose 1000 mg δ-tocotrienol
  plasma tocol level: 993 ± 33 ng/mL
[4]; 2 hr., single dose 750 mg δ-tocotrienol
  plasma tocol level: 877 ± 24 ng/mL
[4]; 2 hr., single dose 1000 mg δ-tocotrienol
  plasma tocol level: 1593 ± 44 ng/mL
[4]; 4 hr., single dose 750 mg δ-tocotrienol
  plasma tocol level: 1444 ± 53 ng/mL
[4]; 4 hr., single dose 1000 mg δ-tocotrienol
  plasma tocol level: 884 ± 45 ng/mL
[4]; 6 hr., single dose 750 mg δ-tocotrienol
  plasma tocol level: 759 ± 30 ng/mL
[4]; 6 hr., single dose 1000 mg δ-tocotrienol
  plasma tocol level: 562 ± 47 ng/mL
[4]; 8 hr., single dose 750 mg δ-tocotrienol
  plasma tocol level: 523 ± 13 ng/mL
[4]; [9]
  Area Under the Curve-t0 - t8 (AUC0-8): 6620.87 ± 49.67^a ^* ng/ml
  Area Under the Curve-t0 - ∞ (AUC0-∞): 8687.69 ± 201.01^a ^* ng/ml
  Elimination of Half-life time (t1/2): 2.74 ± 0.13^a h
  Elimination rate constant (ke): 0.253 ± 0.167^a h-1
  Peak Plasma Concentration (Cmax): 1444.23 ± 53.07^a ng/ml
  Time of clearance (Cl-T): 0.086 ± 0.002^a I/h
  Time to achieve plasma peak (Tmax): 4.00^a h
[4]; [10]
  Area Under the Curve-t0 - t8 (AUC0-8): 6620 ng·h/mL
  Area Under the Curve-t0 - ∞ (AUC0-∞): 8690 ng·h/mL
  Elimination rate constant (ke): 0.25 h⁻¹
  Peak Plasma Concentration (Cmax): 1444 ng/mL
[4]; [11]
  Area Under the Curve-t0 - t8 (AUC0-8): 7450.10 ± 89.01^a ^* ng/ml
  Area Under the Curve-t0 - ∞ (AUC0-∞): 9633.18 ± 382.98^a ^* ng/ml
  Elimination of Half-life time (t1/2): 2.68 ± 0.29^a h
  Elimination rate constant (ke): 0.260 ± 0.143^a h-1
  Peak Plasma Concentration (Cmax): 1591.89 ± 43.97^a ng/ml
  Time of clearance (Cl-T): 0.078 ± 0.003^a I/h
  Time to achieve plasma peak (Tmax): 4.00^a h
[4]; [12]
  Area Under the Curve-t0 - t8 (AUC0-8): 7450 ng·h/mL
  Area Under the Curve-t0 - ∞ (AUC0-∞): 9630 ng·h/mL
  Peak Plasma Concentration (Cmax): 1592 ng/mL
[4]; single dose 750 mg δ-tocotrienol
  Total tocols (sum of 0-8 h): 4045 ng/mL
TNF-α [5]
  effect on secretion of TNF-α: inhibition
TNF-α [6]
  effect on secretion of TNF-α: activation
Hela cells
  IC50: 5 µM
  percentage of control at IC50 dose: 45%
Hela cells; 48 h
  effective dose: 20 µM
  percentage of control at effective dose: 18%
  value at effective dose: 8.3 ± 2.1
Liver cancer cells
  IC50: 20 µM
  percentage of control at IC50 dose: 53%
Liver cancer cells; 48 h
  effective dose: 20 µM
  percentage of control at effective dose: 24%
  value at effective dose: 17.7 ± 2.1
Breast cancer cells
  IC50: 10 µM
  effective dose: 20 µM
  percentage of control at IC50 dose: 49%
  percentage of control at effective dose: 56%
  value at effective dose: 10.7 ± 0.6
Melanoma cells
  IC50: 10 µM
  effective dose: 20 µM
  percentage of control at IC50 dose: 50%
  percentage of control at effective dose: 37%
